Data reported in EP0224596A1, “Use of dibenzocyclooctadiene lignans extracted from Schisandrae Fructus for the manufacture of a medicament for the treatment of hepatic failure” (priority 1985, dated 1986).

Tests used:
[1] = Acute toxicity LD50, p.o.; conditions: mouse, in vivo, po; p.o. in ddY mice
Excerpt: And estimated clinical daily doses of the present therapeutic drugs for patients with hepatic failure are also given in Table 2.

[2] = tested on: mice with acute hepatic failure; assay: Effect on survival ratio of mice with acute hepatic failure (heat-killed P. acnes + LPS); assay type: in vivo, male balb/c strain mice; conditions: survival twenty-four hours after injection of LPS, control 7.5
Protocol: Seven groups of male balb/c strain mice (six weeks of age) were used. Each group included 40 mice. Acute hepatic failure was induced by the injection of 1 µg/mouse of LPS (lipopolysaccharide, Difco Laboratories) to mice that had been injected with 1 mg/mouse of heat-killed P. acnes (Propionibacterium acnes, First Department of Biochemistry in Osaka City Univ. Medical School) seven days before. The above obtained compounds (deoxyschizandrin, gomisin N, schizandrin, gomisin A, q-schizandrin and wuweizisu C) which had been suspended in 0.5% CMC (carboxymethyl cellulose, Wako Junyaku Kogyo, Co. Ltd.), was given p.o. to each group eight hours after the injection of LPS. Only vehicle (CMC) was given p.o. to one remaining group as a control group.
Survival ratio of mice was periodically examined twenty-four hours after induction of acute hepatic failure. Each dose of the above compounds and corresponding survival ratio twenty-four hours after the injection of LPS are shown in Table 1.

[3] = tested on: rats with acute hepatic failure; assay: Survival ratio and serum GOT in acute hepatic failure induced by P. acnes + LPS; assay type: in vivo, male Wistar rats; conditions: for survival ratio: LPS on day seven, control 8.8%
Protocol: Three groups of male Wistar rats were used. Each group included 45 rats. Each rat in all groups was injected with 10 mg/rat of P. acnes. Four days after, gomisin A (100mg/kg, […]) obtained in Production Example 3 were suspended in 2% Tween 80/saline and administered i.p. to respectively two of three groups. Only vehicle (2% Tween 80/saline) was administered i.p. to one remaining group as a control group. All rats were injected with 50µg/rat of LPS, seven days after the injection of P. acnes. Twenty-four hours after the injection of LPS, blood samples were collected from surviving rats by heart puncture, and serum GOT activities were measured. GOT is one of amino acid transferases contained in liver cells. High serum GOT activities reflect large number of destroyed liver cells.

[4] = dose 50 mg/kg p.o. in 0.5% CMC eight hours after LPS
[5] = dose 20 mg/kg p.o. in 0.5% CMC eight hours after LPS

Row | SMILES | LD50 [1] | Survival Ratio (%) [2, 4] | Survival Ratio (%) [2, 5] | further results
1 | COc1cc2c(c(OC)c1OC)-c1c(cc(OC)c(OC)c1OC)C[C@H](C)[C@H](C)C2 [Deoxyschizandrin, deoxyschizandrin] | 2000 mg/kg | 55% |  | 
2 | COc1cc2c(c(OC)c1OC)-c1c(cc3c(c1OC)OCO3)CC(C)C(C)(O)C2 (centres unmarked) [Gomisin A, gomisin A] | 777 mg/kg |  |  | survival ratio ([3]; 50mg/kg i.p. in 2% Tween 80/saline four days after P. acnes): 83.3%; survival ratio ([3]; 100mg/kg i.p. in 2% Tween 80/saline four days after P. acnes): 100%; average serum GOT activities ([3]; 100mg/kg i.p., surviving rats, twenty-four hours after injection of LPS, control 7000 IU): 140 IU; Survival Ratio (%) ([2]; dose 10 mg/kg p.o. in 0.5% CMC eight hours after LPS): 80%
3 | COc1cc2c(c(OC)c1OC)-c1c(cc3c(c1OC)OCO3)CC(C)C(C)C2 (centres unmarked) [Gomisin N, gomisin N] | 2000 mg/kg |  | 80% | 
4 | COc1cc2c(c(OC)c1OC)-c1c(cc(OC)c(OC)c1OC)C[C@](C)(O)[C@@H](C)C2 [Schizandrin, schizandrin] | 1450 mg/kg | 50% |  | 
5 | COc1c2c(cc3c1-c1c(cc4c(c1OC)OCO4)CC(C)C(C)C3)OCO2 (centres unmarked) [Wuweizisu C] | 2000 mg/kg |  | 70% | 
6 | COc1cc2c(c(OC)c1OC)-c1c(cc3c(c1OC)OCO3)CC(C)C(C)C2 (centres unmarked) [γ-Schizandrin, γ-schizandrin] |  | 60% |  | 
